The record followed here is US20090088439A1, “Diazinane Compounds” (priority 2007, published 2009).

Assay [1] concerns the target T1, GABABR1a/GABABR2 heterodimer (Homo sapiens, UniProt O75899+Q9UBS5).
T1 construct: expressed in transfected cells; membrane preparation
Nature of the assay: GTPγS35 radioligand filtration-binding assay for determination of agonist potency. The class given is biochemical. The conditions noted are these: membranes of CHO K1 Flp-In cells expressing GABABR1a/GABABR2; compound alone. As to the method: The potency and efficacy of the compounds acting as agonists at the GABAB receptor was also determined in a automated GTPγS^35 radioligand filtration-binding assay.
(§1) The GABAB receptor is a G-protein coupled receptor. Binding of a ligand activates the receptor leading to recruitment of G-protein and a substitution of the G-protein bound GDP to GTP. The G-protein becomes active. The G-protein is inactivated by hydrolysis of GTP to GDP. G-proteins are membrane bound and therefore present in membrane preparations.
(§2) In the GTPγS^35 assay, GTP is not present but instead GTPγS^35 where one of the phosphate groups are substituted to a sulphur group which cannot be hydrolysed. Upon activation of the receptor, radiolabelled GTPγS^35 replaces the GDP. The complex cannot be inactivated and the radiolabelled complex is accumulating. At the end of the assay, the reaction mixture is filtered through a membrane-binding filter. Excess GTPγS^35 is removed by washing and the membrane bound S^35, which correlates to the degree of receptor activation, is measured with a β-Liquid Scintillation Counter.
The human GABABR1a was subcloned into pIRESneo3 (Clontech) using GABABR1a construct as a template (refseqN NM001470). GABABR2 was subcloned into pCDNA5/FRT (Invitrogen) using GABABR2 construct as a template (refseqN NM005458). The Kozak sequence GCCACC was introduced before the start codon in both constructs.
For generation of stable cell lines, CHO K1 Flp-In cells (Invitrogen) were grown in DMEM/F 12 1:1 media supplemented with 10% FBS at 37° C. in a humidified CO2-incubator. The cells were detached with Accutase and 1.5 million cells were seeded into T75 flasks. After 24 h, transfection of the cells were performed with the GABABR2 construct. For generation of cell lines expressing GABABR2, GABABR2 plasmid (1 μg) and pOG44 from Invitrogen (9 μg) were mixed with 30 μl Lipofectamine 2000 in 600 μl OptiMEM for 20 minutes. The cells were exposed to transfection medium for 5 hours and was then replaced with culture medium. After 2 days 0.5 mg/ml Hygromycin were added to culture medium. The cells were cultured for an additional 10 days to establish a stable cell mix expressing GABABR2. For generation of a cell line expressing the GABABR1a/GABABR2 heterodimer, GABABR1a plasmid DNA (8 μg) and Lipofectamine (30 μl) were mixed in 600 μl OptiMEM and incubated for 20 minutes before added to CHO-Flp-In cells expressing GABABR2. After 2 days additional selection agent was added (0.8 mg/ml Geneticin). The cells were cultured for another 10 days to generate a stable mixed population expressing the GABABR1a/GABABR2 heterodimer. The cell line was analyzed by GTPγS^35 assay with GABA as agonist.
GTPγS^35 radioligand filtration-binding assays were performed using an automated workstation at 30° C. for 1 hour in assay buffer (50 mM HEPES, 40 mM NaCl, 1 mM MgCl2×6H2O, 30 μg/mL Saponin, pH 7.4 at RT) containing 0.025 μg/μL of membrane protein (prepared from the cell line described above), 10 μM GDP and 0.55 nCi/μL GTPγS^35 in a final volume of 60 μL. The reaction was started by the addition of compounds (GABA was always included as a positive control), start concentration 100 μM dilution factor 3. The reaction was terminated and membranes collected by addition of ice-cold wash buffer (50 mM Tris-HCl, 5 mM MgCl2×6H2O, 50 mM NaCl, pH 7.4 at 4° C.) followed by rapid filtration under vacuum through a MultiScreen HTS 384 FB filter plate. Repeated washing of the filters with ice-cold wash buffer washed the unbound radioligand away. The filter plates were dried for 1½-2 hours at 50° C., then 8 μL scintillation liquid was added per well followed by incubation at RT for at least 20 minutes before bound radioactivity was determined using a β-Liquid Scintillation Counter (1450 Microbeta Trilux, Wallac, Finland)
100% activation (max) is calculated as the mean value for wells containing 1 mM GABA. […]

The target of assay [2] is T2, GABAB(1A,2) receptor heterodimer (Homo sapiens, UniProt O75899+Q9UBS5).
T2 construct: expressed in transfected cells; membrane preparation
Nature of the assay: GTPγS35 radioligand filtration-binding assay for determination of PAM potency. Conditions: membranes of CHO-K1 cells expressing GABABR1a/GABABR2; concentration required to reduce GABA's EC50 by 50%; PAM at 10, 1, 0.1 and 0.01 μM; read-out: Mean (EC50 derived) PAM EC50. The class given is biochemical.
Excerpt: The effect of GABA in an automated GTPγS^35 radioligand filtration-binding assay in CHO cells expressing the GABAB(1A,2) receptor heterodimer was studied in the presence or absence of the positive allosteric modulator test compounds. […]
as §1, §2
GABABR1a and GABABR2 were cloned from human brain cDNA and subcloned into pCI-Neo (Promega) and pALTER-1 (Promega), respectively.
In order to optimise the Kozak consensus sequence of GABABR2, in situ mutagenesis was performed using the Altered Sites Mutagenesis kit according to manufacturer's instruction (Promega) with the following primer,
5′-[…]-3′. The optimised GABABR2 was then restricted from pALTER-1 with Xho I+Kpn I and subcloned into the mammalian expression vector pcDNA3.1(−)/Zeo (Invitrogen) to produce the final construct, pcDNA3.1(−)/Zeo-GABABR2.
For generation of stable cell lines, CHO-K1 cells were grown in Nut mix F-12 (Ham) media supplemented with 10% FBS, 100 U/ml Penicillin and 100 μg/ml Streptomycin at 37° C. in a humidified CO2-incubator. The cells were detached with 1 mM EDTA in PBS and 1 million cells were seeded in 100 mm petri dishes. After 24 hours the culture media was replaced with OptiMEM and incubated for 1 hour in a CO2-incubator.
For generation of a cell line expressing the GABABR1a/GABABR2 heterodimer, GABABR1a plasmid DNA (4 μg) GABABR2 plasmid DNA (4 μg) and lipofectamine (24 μl) were mixed in 5 ml OptiMEM and incubated for 45 minutes at room temperature. The cells were exposed to the transfection medium for 5 hours, which then was replaced with culture medium. The cells were cultured for an additional 10 days before selection agents (300 μg/ml hygromycin and 400 μg/ml geneticin) were added. Twenty-four days after transfection, single cell sorting into 96-well plates by flow cytometry was performed using a FACS Vantage SE (Becton Dickinson, Palo Alto, Calif.). After expansion, the GABAB receptor functional response was tested by measuring the GABAB receptor dependent release of intracellular calcium in a fluorescence imaging plate reader (FLIPR). The clone with the highest functional response was collected, expanded and then subcloned by single cell sorting. The clonal cell line with the highest peak response in the FLIPR was used in the present study.
GTPγS^35 radioligand filtration-binding assays were performed using an automated workstation at 30° C. for 1 hour in assay buffer (50 mM HEPES, 40 mM NaCl, 1 mM MgCl2×6H2O, 30 μg/mL Saponin, pH 7.4 at RT) containing 0.025 μg/μL of membrane protein (prepared from the cell line described above), 10 μM GDP and 0.55 nCi/μL GTPγS^35 in a final volume of 60 μL. The reaction was started by the addition of serially diluted GABA (final start concentration 1 mM dilution factor 3) in the presence or absence of four concentrations (final conc 10, 1, 0.1 and 0.01 μM) of PAM. The reaction was terminated and membranes collected by addition of ice-cold wash buffer (50 mM Tris-HCl, 5 mM MgCl2×6H2O, 50 mM NaCl, pH 7.4 at 4° C.) followed by rapid filtration under vacuum through a MultiScreen HTS 384 FB filter plate. […]

T2 sequence (Q9UBS5 15-961 limits assumed): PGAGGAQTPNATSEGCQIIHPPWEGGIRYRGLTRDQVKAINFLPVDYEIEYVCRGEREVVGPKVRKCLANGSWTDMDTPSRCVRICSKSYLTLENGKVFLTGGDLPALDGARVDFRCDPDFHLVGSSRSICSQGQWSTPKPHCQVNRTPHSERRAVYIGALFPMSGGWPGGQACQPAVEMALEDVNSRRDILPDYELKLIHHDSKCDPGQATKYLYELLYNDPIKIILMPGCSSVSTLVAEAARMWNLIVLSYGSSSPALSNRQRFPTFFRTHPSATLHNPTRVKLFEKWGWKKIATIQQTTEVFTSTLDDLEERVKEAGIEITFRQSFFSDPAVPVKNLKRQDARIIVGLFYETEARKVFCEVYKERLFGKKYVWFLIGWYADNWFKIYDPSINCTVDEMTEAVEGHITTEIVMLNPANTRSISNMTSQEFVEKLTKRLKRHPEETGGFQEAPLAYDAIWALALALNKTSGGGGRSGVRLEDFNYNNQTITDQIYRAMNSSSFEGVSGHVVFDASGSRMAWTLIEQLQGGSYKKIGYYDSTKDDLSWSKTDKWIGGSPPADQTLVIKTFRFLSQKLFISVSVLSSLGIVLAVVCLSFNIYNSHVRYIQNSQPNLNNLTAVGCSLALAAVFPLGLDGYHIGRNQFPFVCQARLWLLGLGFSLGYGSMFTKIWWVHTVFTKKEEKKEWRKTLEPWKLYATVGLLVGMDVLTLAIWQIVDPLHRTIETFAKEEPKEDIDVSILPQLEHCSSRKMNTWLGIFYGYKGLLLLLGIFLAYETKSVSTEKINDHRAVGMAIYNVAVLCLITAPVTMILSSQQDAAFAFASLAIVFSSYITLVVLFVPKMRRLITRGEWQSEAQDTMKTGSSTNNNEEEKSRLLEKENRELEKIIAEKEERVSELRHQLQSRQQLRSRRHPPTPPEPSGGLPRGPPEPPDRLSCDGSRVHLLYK
T2 sequence (O75899 42-941): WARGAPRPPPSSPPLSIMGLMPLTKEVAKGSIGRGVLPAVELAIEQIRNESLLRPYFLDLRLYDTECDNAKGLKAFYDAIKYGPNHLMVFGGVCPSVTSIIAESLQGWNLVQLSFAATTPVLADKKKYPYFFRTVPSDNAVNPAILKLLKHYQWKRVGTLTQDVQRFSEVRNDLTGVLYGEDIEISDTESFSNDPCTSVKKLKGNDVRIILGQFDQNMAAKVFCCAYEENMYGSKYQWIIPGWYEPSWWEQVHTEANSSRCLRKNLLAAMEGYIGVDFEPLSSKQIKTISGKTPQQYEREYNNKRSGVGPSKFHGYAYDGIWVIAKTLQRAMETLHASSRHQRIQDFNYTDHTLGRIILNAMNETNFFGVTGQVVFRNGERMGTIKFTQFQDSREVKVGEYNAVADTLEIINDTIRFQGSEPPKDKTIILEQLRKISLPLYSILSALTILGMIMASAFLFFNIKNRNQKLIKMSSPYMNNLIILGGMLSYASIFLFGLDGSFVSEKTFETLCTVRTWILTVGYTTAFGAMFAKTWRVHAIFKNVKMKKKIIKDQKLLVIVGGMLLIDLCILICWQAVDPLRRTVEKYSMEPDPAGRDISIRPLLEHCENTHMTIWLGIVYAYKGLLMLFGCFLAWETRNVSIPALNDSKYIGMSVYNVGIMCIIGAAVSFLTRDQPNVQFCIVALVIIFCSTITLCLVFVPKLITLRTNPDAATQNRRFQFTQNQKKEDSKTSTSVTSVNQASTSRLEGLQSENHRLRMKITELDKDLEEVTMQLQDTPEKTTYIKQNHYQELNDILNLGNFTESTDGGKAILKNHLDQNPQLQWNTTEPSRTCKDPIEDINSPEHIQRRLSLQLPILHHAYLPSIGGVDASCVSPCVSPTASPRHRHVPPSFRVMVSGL
T1 sequence (Q9UBS5 15-961 limits assumed): as the sequence (Q9UBS5 15-961 limits assumed) above
T1 sequence (O75899 42-941): as the sequence (O75899 42-941) above

In the case of “6-tert-butyl-3-(4-chlorobenzyl)-1-propylpteridine-2,4(1H,3H)-dione and 7-tert-butyl-3-(4-chlorobenzyl)-1-propylpteridine-2,4(1H,3H)-dione [Example 23]”, the EC50 in assay [1] worked out at 2200 nM.

For `CCCn1c(=O)n(Cc2ccc(Cl)cc2)c(=O)c2nc3c(nc21)C(C)CC3C` (mixture of isomers) [Example 12, 3-(4-chlorobenzyl)-6,8-dimethyl-1-propyl-7,8-dihydro-1H-cyclopenta[g]pteridine-2,4(3H,6H)-dione], the concentration giving a half-maximal response (EC50) in assay [1] was found to be 1400 nM. `COc1ccc(Cn2c(=O)n(Cc3ccc(Cl)cc3)c(=O)c3nccnc32)c(OC)c1` [Example 1, 3-(4-chlorobenzyl)-1-(2,4-dimethoxybenzyl)pteridine-2,4(1H,3H)-dione]: in assay [2], the EC50 turned out to be 6000 nM. As to `CCCn1c(=O)n(Cc2ccc(Cl)cc2)c(=O)c2nccnc21` [Example 2, 3-(4-chlorobenzyl)-1-propylpteridine-2,4(1H,3H)-dione], the EC50 in assay [2] came to 4300 nM. For the molecule `C[Si](C)(C)CCn1c(=O)n(Cc2ccc(Cl)cc2)c(=O)c2nccnc21` [Example 3, 3-(4-chlorobenzyl)-1-[2-(trimethylsilyl)ethyl]pteridine-2,4(1H,3H)-dione], the half-maximal effective concentration (EC50) in assay [2] is 600 nM. For the molecule `O=c1c2nccnc2n(CC2CCCCC2)c(=O)n1Cc1ccc(Cl)cc1` [Example 4, 3-(4-chlorobenzyl)-1-(cyclohexylmethyl)pteridine-2,4(1H,3H)-dione], in assay [2], the half-maximal effective concentration (EC50) came out at 600 nM.

Take `CC(C)(C)C(=O)Cn1c(=O)n(Cc2ccc(Cl)cc2)c(=O)c2nccnc21` [Example 5, 3-(4-chlorobenzyl)-1-(3,3-dimethyl-2-oxobutyl)pteridine-2,4(1H,3H)-dione]: the EC50 in assay [2] is 2900 nM. The same measure, in the same setting: then `O=c1c2nccnc2n(Cc2ccccc2)c(=O)n1Cc1ccc(Cl)cc1` [Example 7, 1-benzyl-3-(4-chlorobenzyl)pteridine-2,4(1H,3H)-dione], with 5100 nM; and `O=c1c2nccnc2n(Cc2ccc(Cl)cc2)c(=O)n1Cc1ccc(Cl)cc1` [Example 8, 1,3-bis(4-chlorobenzyl)pteridine-2,4(1H,3H)-dione], with 2400 nM; and `COc1ccc(Cn2c(=O)n(Cc3ccc(Cl)cc3)c(=O)c3nccnc32)cc1` [Example 9, 3-(4-chlorobenzyl)-1-(4-methoxybenzyl)pteridine-2,4(1H,3H)-dione], with 7000 nM. `O=C(c1ccccc1)c1ccc(Cn2c(=O)n(Cc3ccc(Cl)cc3)c(=O)c3nccnc32)cc1` [Example 10, 1-(4-benzoylbenzyl)-3-(4-chlorobenzyl)pteridine-2,4(1H,3H)-dione]: in assay [2], the EC50 was 800 nM.

Regarding `O=c1c2nccnc2n(CCc2ccccc2)c(=O)n1Cc1ccc(Cl)cc1` [Example 11, 3-(4-chlorobenzyl)-1-(2-phenylethyl)pteridine-2,4(1H,3H)-dione], the EC50 in assay [2] was 1300 nM. In assay [1], `CCCn1c(=O)n(Cc2ccc(Cl)cc2)c(=O)c2nc(CC)c(CC)nc21` [Example 13, 3-(4-chlorobenzyl)-6,7-diethyl-1-propylpteridine-2,4(1H,3H)-dione] came in with an EC50 of 800 nM. The same measure, in the same setting: the value for `C=CCn1c(=O)n(Cc2ccc(Cl)cc2)c(=O)c2nc3c(nc21)CCCC3` [Example 14, 1-allyl-3-(4-chlorobenzyl)-6,7,8,9-tetrahydrobenzo[g]pteridine-2,4(1H,3H)-dione] was 1600 nM; that for `N#Cc1cccc(Cn2c(=O)n(Cc3ccc(Cl)cc3)c(=O)c3nc4c(nc32)CCCC4)c1` [Example 16, 3-{[3-(4-chlorobenzyl)-2,4-dioxo-3,4,6,7,8,9-hexahydrobenzo[g]pteridin-1(2H)-yl]methyl}benzonitrile] was 1000 nM. Consider `O=c1c2nc3c(nc2n(CCn2cccc2)c(=O)n1Cc1ccc(Cl)cc1)CCCC3` [Example 17, 3-(4-chlorobenzyl)-1-[2-(1H-pyrrol-1-yl)ethyl]-6,7,8,9-tetrahydrobenzo[g]pteridine-2,4(1H,3H)-dione], for which the midpoint of the response in assay [1], the EC50, lay at 1600 nM. In turn, `CC(C)(C)C(=O)Cn1c(=O)n(Cc2ccc(Cl)cc2)c(=O)c2nc3c(nc21)CCCC3` [Example 18, 3-(4-chlorobenzyl)-1-(3,3-dimethyl-2-oxobutyl)-6,7,8,9-tetrahydrobenzo[g]pteridine-2,4(1H,3H)-dione] registered an EC50 in assay [1] of 500 nM.

With `O=c1c2nc3c(nc2n(CC(O)C(F)(F)F)c(=O)n1Cc1ccc(Cl)cc1)CCCC3` (stereo not shown) [Example 19, 3-(4-chlorobenzyl)-1-(3,3,3-trifluoro-2-hydroxypropyl)-6,7,8,9-tetrahydrobenzo[g]pteridine-2,4(1H,3H)-dione], in assay [1], the EC50 was 1300 nM. The molecule `CCCn1c(=O)n(Cc2ccc(Cl)cc2)c(=O)c2c1nc1c([n+]2[O-])CCCC1` [Example 21, 3-(4-chlorobenzyl)-1-propyl-6,7,8,9-tetrahydrobenzo[g]pteridine-2,4(1H,3H)-dione 5-oxide] yielded an EC50 in assay [1] of 7700 nM.
